This is an account of results in PubChem BioAssay AID1259407 (Chemical Carcinogenesis Research Information System (CCRIS), 2018).

For this data set, the system named is CCRIS mutagenicity, Ames/micronucleus/aberration tests. The data set can be described thus: CCRIS mutagenicity studies.
The mark [1] stands for this setting: Test System: AMES SALMONELLA TYPHIMURIUM, Strain/Indicator: TA98, Metabolic Activation: NONE, Method: PREINCUBATION
The mark [2] stands for this setting: Test System: AMES SALMONELLA TYPHIMURIUM, Strain/Indicator: TA100, Metabolic Activation: NONE, Method: PREINCUBATION
Where [3] appears, read: Test System: AMES SALMONELLA TYPHIMURIUM, Strain/Indicator: TA1535, Metabolic Activation: NONE, Method: PREINCUBATION
Setting [4] is: Test System: AMES SALMONELLA TYPHIMURIUM, Strain/Indicator: TA1537, Metabolic Activation: NONE, Method: PREINCUBATION

Calls of active or inactive are those of the source. No rule for the calls is given here.

Regarding `COC1=CC=CC=CC1`, the mutagenic call was “inactive; negative” under setting [1]; “inactive; negative” (Test System: AMES SALMONELLA TYPHIMURIUM, Strain/Indicator: TA98, Metabolic Activation: NONE, Method: STANDARD PLATE); “inactive; negative” (Test System: AMES SALMONELLA TYPHIMURIUM, Strain/Indicator: TA98, Metabolic Activation: RAT, LIVER, S-9, Method: PREINCUBATION); “inactive; negative” (Test System: AMES SALMONELLA TYPHIMURIUM, Strain/Indicator: TA98, Metabolic Activation: RAT, LIVER, S-9, Method: STANDARD PLATE); “inactive; negative” under setting [2]; “inactive; negative” (Test System: AMES SALMONELLA TYPHIMURIUM, Strain/Indicator: TA100, Metabolic Activation: NONE, Method: STANDARD PLATE). The mutagenic call is, setting by setting: (Test System: AMES SALMONELLA TYPHIMURIUM, Strain/Indicator: TA100, Metabolic Activation: RAT, LIVER, S-9, Method: PREINCUBATION) “inactive; negative”; (Test System: AMES SALMONELLA TYPHIMURIUM, Strain/Indicator: TA100, Metabolic Activation: RAT, LIVER, S-9, Method: STANDARD PLATE) “inactive; negative”; under setting [3], “inactive; negative”; (Test System: AMES SALMONELLA TYPHIMURIUM, Strain/Indicator: TA1535, Metabolic Activation: NONE, Method: STANDARD PLATE) “inactive; negative”; (Test System: AMES SALMONELLA TYPHIMURIUM, Strain/Indicator: TA1535, Metabolic Activation: RAT, LIVER, S-9, Method: PREINCUBATION) “inactive; negative”; (Test System: AMES SALMONELLA TYPHIMURIUM, Strain/Indicator: TA1535, Metabolic Activation: RAT, LIVER, S-9, Method: STANDARD PLATE) “inactive; negative”. Further, the mutagenic call under setting [4] was “inactive; negative”; the mutagenic call (Test System: AMES SALMONELLA TYPHIMURIUM, Strain/Indicator: TA1537, Metabolic Activation: RAT, LIVER, S-9, Method: PREINCUBATION) is “inactive; negative”; the mutagenic call (Test System: AMES SALMONELLA TYPHIMURIUM, Strain/Indicator: TA1538, Metabolic Activation: NONE, Method: PREINCUBATION) was “inactive; negative”; the mutagenic call (Test System: AMES SALMONELLA TYPHIMURIUM, Strain/Indicator: TA1538, Metabolic Activation: NONE, Method: STANDARD PLATE) was “active; positive”; the mutagenic call (Test System: AMES SALMONELLA TYPHIMURIUM, Strain/Indicator: TA1538, Metabolic Activation: RAT, LIVER, S-9, Method: PREINCUBATION) was “inactive; negative”; the mutagenic call (Test System: AMES SALMONELLA TYPHIMURIUM, Strain/Indicator: TA1538, Metabolic Activation: RAT, LIVER, S-9, Method: STANDARD PLATE) is “active; positive”. Also, the mutagenic call reads like this: (Test System: CHINESE HAMSTER V-79, Strain/Indicator: V-79/8-AZAGUANINE (HGPRT), Metabolic Activation: NONE, Method: STANDARD PLATE) “active; positive”; (Test System: CHINESE HAMSTER V-79, Strain/Indicator: V-79/8-AZAGUANINE (HGPRT), Metabolic Activation: RAT, LIVER, S-9, Method: STANDARD PLATE) “active; positive”; (Test System: MOUSE LYMPHOMA, Strain/Indicator: L5178Y (TK+/TK-), Metabolic Activation: NONE) “inactive; negative”; (Test System: MOUSE LYMPHOMA, Strain/Indicator: L5178Y (TK+/TK-), Metabolic Activation: RAT, LIVER, S-9) “active; positive”; (Test System: MOUSE LYMPHOMA, Strain/Indicator: L5178Y (TK+/TK-), Metabolic Activation: RAT, LIVER, S-9, AROCLOR 1254) “active; positive”.

In the case of `C1CC[CH]([Sn]([CH]2CCCCC2)[CH]2CCCCC2)CC1`, the mutagenic call is “inactive; negative” (Test System: UDS HUMAN PERIPHERAL BLOOD LYMPHOCYTES, Strain/Indicator: THY INCORP, Metabolic Activation: NONE, Method: LIQUID SCINTILLATION) and “inactive; negative” (Test System: UDS HUMAN PERIPHERAL BLOOD LYMPHOCYTES, Strain/Indicator: THY INCORP, Metabolic Activation: RAT, LIVER, S-9, PHENOBARBITAL AND BETA-NAPHTHOFLAVONE, Method: LIQUID SCINTILLATION).

In the case of `Cc1cccc(O)c1`, the mutagenic call was “active; positive (structural changes)” (End Point: IN VITRO CHROMOSOMAL ABERRATIONS, Test System: SYRIAN HAMSTER EMBRYO (SHE) CELLS, Metabolic Activation: NONE); “active; positive (structural changes)” (End Point: IN VITRO CHROMOSOMAL ABERRATIONS, Test System: SYRIAN HAMSTER EMBRYO (SHE) CELLS, Metabolic Activation: RAT, LIVER, S-9); “inactive; negative” under setting [1]; “inactive; negative” (Test System: AMES SALMONELLA TYPHIMURIUM, Strain/Indicator: TA98, Metabolic Activation: RAT, LIVER, S-9, SODIUM PHENOBARBITAL AND 5,6-BENZOFLAVONE, Method: PREINCUBATION); “inactive; negative” under setting [2]; “inactive; negative” (Test System: AMES SALMONELLA TYPHIMURIUM, Strain/Indicator: TA100, Metabolic Activation: RAT, LIVER, S-9, SODIUM PHENOBARBITAL AND 5,6-BENZOFLAVONE, Method: PREINCUBATION). The mutagenic call was “inactive; negative” (Test System: AMES SALMONELLA TYPHIMURIUM, Strain/Indicator: TA102, Metabolic Activation: NONE, Method: PREINCUBATION); “inactive; negative” (Test System: AMES SALMONELLA TYPHIMURIUM, Strain/Indicator: TA102, Metabolic Activation: RAT, LIVER, S-9, SODIUM PHENOBARBITAL AND 5,6-BENZOFLAVONE, Method: PREINCUBATION); “inactive; negative” (Test System: AMES SALMONELLA TYPHIMURIUM, Strain/Indicator: TA104, Metabolic Activation: NONE, Method: PREINCUBATION); “inactive; negative” (Test System: AMES SALMONELLA TYPHIMURIUM, Strain/Indicator: TA104, Metabolic Activation: RAT, LIVER, S-9, SODIUM PHENOBARBITAL AND 5,6-BENZOFLAVONE, Method: PREINCUBATION); “inactive; negative” under setting [3]; “inactive; negative” (Test System: AMES SALMONELLA TYPHIMURIUM, Strain/Indicator: TA1535, Metabolic Activation: RAT, LIVER, S-9, SODIUM PHENOBARBITAL AND 5,6-BENZOFLAVONE, Method: PREINCUBATION). Further, the mutagenic call is, setting by setting: under setting [4], “inactive; negative”; (Test System: AMES SALMONELLA TYPHIMURIUM, Strain/Indicator: TA1537, Metabolic Activation: RAT, LIVER, S-9, SODIUM PHENOBARBITAL AND 5,6-BENZOFLAVONE, Method: PREINCUBATION) “inactive; negative”; (Test System: Ames Salmonella typhimurium, Strain/Indicator: TA98, Metabolic Activation: Hamster, Liver, S-9, Aroclor 1254 (10%), Method: Preincubation) “inactive; negative”; (Test System: Ames Salmonella typhimurium, Strain/Indicator: TA98, Metabolic Activation: None, Method: Preincubation) “inactive; negative”; (Test System: Ames Salmonella typhimurium, Strain/Indicator: TA98, Metabolic Activation: Rat, Liver, S-9, Aroclor 1254 (10%), Method: Preincubation) “inactive; negative”; (Test System: Ames Salmonella typhimurium, Strain/Indicator: TA100, Metabolic Activation: Hamster, Liver, S-9, Aroclor 1254 (10%), Method: Preincubation) “inactive; negative”. Further, the mutagenic call runs as follows: (Test System: Ames Salmonella typhimurium, Strain/Indicator: TA100, Metabolic Activation: None, Method: Preincubation) “inactive; negative”; (Test System: Ames Salmonella typhimurium, Strain/Indicator: TA100, Metabolic Activation: Rat, Liver, S-9, Aroclor 1254 (10%), Method: Preincubation) “inactive; negative”; (Test System: Ames Salmonella typhimurium, Strain/Indicator: TA1535, Metabolic Activation: Hamster, Liver, S-9, Aroclor 1254 (10%), Method: Preincubation) “inactive; negative”; (Test System: Ames Salmonella typhimurium, Strain/Indicator: TA1535, Metabolic Activation: None, Method: Preincubation) “inactive; negative”; (Test System: Ames Salmonella typhimurium, Strain/Indicator: TA1535, Metabolic Activation: Rat, Liver, S-9, Aroclor 1254 (10%), Method: Preincubation) “inactive; negative”; (Test System: Ames Salmonella typhimurium, Strain/Indicator: TA1537, Metabolic Activation: Hamster, Liver, S-9, Aroclor 1254 (10%), Method: Preincubation) “inactive; negative”. Besides, the mutagenic call is “inactive; negative” (Test System: Ames Salmonella typhimurium, Strain/Indicator: TA1537, Metabolic Activation: None, Method: Preincubation); “inactive; negative” (Test System: Ames Salmonella typhimurium, Strain/Indicator: TA1537, Metabolic Activation: Rat, Liver, S-9, Aroclor 1254 (10%), Method: Preincubation); “inactive; negative” (Test System: E. COLI, Strain/Indicator: WP2UVRA/PKM101, Metabolic Activation: NONE, Method: PREINCUBATION); “inactive; negative” (Test System: E. COLI, Strain/Indicator: WP2UVRA/PKM101, Metabolic Activation: RAT, LIVER, S-9, PHENOBARBITAL AND BETA-NAPHTHOFLAVONE, Method: PREINCUBATION); “inactive; negative” (Test System: E. COLI, Strain/Indicator: WP2UVRA, Metabolic Activation: NONE, Method: PREINCUBATION); “inactive; negative” (Test System: E. COLI, Strain/Indicator: WP2UVRA, Metabolic Activation: RAT, LIVER, S-9, PHENOBARBITAL AND BETA-NAPHTHOFLAVONE, Method: PREINCUBATION).
